Test results published in PubChem BioAssay (NCI).
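1) Cells in 96-well plates. 2) Compound, 48 h, 5 concentrations. 3) Linear interpolation between surrounding doses. 4) Unreached endpoint = highest concentration. TGI denotes the concentration required for complete inhibition of growth.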

Legend:
Experiment in all cases: NCI tumour cell line growth inhibition, 48 h
XF 498 CNS = tested on: XF 498 CNS
NCI-H460 lung = tested on: NCI-H460 lung
OVCAR-3 ovarian = tested on: OVCAR-3 ovarian
M19-MEL melanoma = tested on: M19-MEL melanoma
HT29 colon = tested on: HT29 colon
MCF7 breast = tested on: MCF7 breast
OVCAR-8 ovarian = tested on: OVCAR-8 ovarian
SK-MEL-2 melanoma = tested on: SK-MEL-2 melanoma
TK-10 renal = tested on: TK-10 renal
M14 melanoma = tested on: M14 melanoma
MDA-MB-435 = tested on: MDA-MB-435

| Compound | TGI (XF 498 CNS) [µM] | TGI (NCI-H460 lung) [µM] | TGI (OVCAR-3 ovarian) [µM] | TGI (M19-MEL melanoma) [µM] | TGI (HT29 colon) [µM] | TGI (MCF7 breast) [µM] | TGI (OVCAR-8 ovarian) [µM] | TGI (SK-MEL-2 melanoma) [µM] | TGI (TK-10 renal) [µM] | TGI (M14 melanoma) [µM] | TGI (MDA-MB-435) [µM] |
| --- | --- | --- | --- | --- | --- | --- | --- | --- | --- | --- | --- |
| COc1cc2c(cc1O)N=C[C@@H]1CCC(O)N1C2=O (mixture of isomers) | 1.2 | 11.4 | 1.49 | 4.81 | 72.9 | 37 | 10 | 0.748 |  |  |  |
| C/C=C1/C(=O)O[C@]23C=C[C@@H]4C(C(=O)OC)=CO[C@H](O[C@@H]12)[C@@H]43 | 3.37 | 32.4 | 3.95 | 4.38 | 9.06 | 3.76 | 11.4 | 3.76 |  |  |  |
| CC1CC(c2ccc([N+](=O)[O-])cc2)=Nc2ccccc2S1=O (configuration not stated) | 95.1 | 34.3 |  | 30.8 | 27.2 |  | 32.9 | > 100 | 91.6 | 35 |  |
| O=c1cc(-c2cccc(Br)c2)[nH]c2cc3c(cc12)OCO3 | 14.5 | 24.8 | 9.5 | > 100 | > 83.3 | > 100 | 17.3 | 6.67 | 28.6 | 24.5 | 3.02 |
| COC(=O)c1ccccc1Nc1ccccc1C(=O)OC |  | > 100 | > 100 |  | > 100 | > 100 | > 100 | > 100 | > 100 | > 100 | > 100 |
| CCO/N=C(/CC)c1ccc(Br)s1 |  | > 100 | > 100 |  | > 100 | > 100 | > 100 | > 100 | > 100 | > 100 | > 100 |
| Nc1nc2c(ncn2CC(CO)CC(c2ccccc2)P(=O)(O)O)c(=O)[nH]1 (configuration not stated) | > 100 | > 100 | > 100 | > 100 | > 100 |  | > 100 | > 100 | > 100 | > 100 |  |
| Cc1ccc(S(=O)(=O)N/N=C2\CC3C4CCC3C2C4)cc1 (configuration not stated) |  | > 100 | > 100 |  | > 100 | > 100 | > 100 | > 100 | > 100 | > 100 | > 100 |
| CC1(C)O[C@@H](CP(c2ccc3ccccc3c2)c2ccc3ccccc3c2)[C@H](CP(c2ccc3ccccc3c2)c2ccc3ccccc3c2)O1 |  | > 100 | > 100 |  | > 100 | > 100 | > 100 | > 100 | > 100 | > 100 | > 100 |
| CCN1CCC(O)(/C=C/c2ccc(Cl)cc2)C(C(=O)/C=C/c2ccc(Cl)cc2)C1 (configuration not stated) | > 100 | > 100 | 40.2 | 92.9 | 42.8 |  | 61.3 | > 100 | > 100 | > 100 |  |
| COC(=O)/C=C/N1CC1 |  | > 10 | > 10 |  | > 10 | > 10 | > 10 | > 10 | > 10 | > 10 | > 10 |
| NC1=CN(Cc2ccccc2)C2=N/C(=C\c3ccco3)C(=O)N12 |  | > 100 | > 100 |  | > 100 | > 100 | > 100 | > 100 | > 100 | > 100 | > 100 |
| Cc1cccc2c(=O)c3c(O)cc4c(c3n(C)c12)C=CC(C)(C)O4 |  | > 100 | > 100 |  | 36.8 | > 100 | > 100 | > 100 | > 100 | > 100 | > 100 |
| C[C@]12CC[C@H]3[C@@H](CCC4=CC(=O)CC[C@@]43C)[C@@H]1CC[C@@H]2OC(=O)c1cccc2c(=O)c3ccccc3[nH]c12 |  | > 100 | > 100 |  | > 100 | > 100 | > 100 | > 100 | > 100 | > 100 | > 100 |
| COc1ccc2oc3c(ccc[n+]3C)c(=O)c2c1 |  | > 100 | > 100 |  | > 100 | > 100 | > 100 | > 100 | > 100 | > 100 | > 100 |
| NCCSc1nc(N)c2ncn(C3OC(CO)C(O)C3O)c2n1 (configuration not stated) | > 100 | > 100 | > 100 | > 100 | > 100 |  | > 100 | > 100 | > 100 | > 100 |  |
| N#CCCN(CCC#N)c1ccc(/C=C2\N=C(c3ccccc3)N(c3ccccc3)C2=O)cc1 |  | > 100 | > 100 |  | > 100 | > 100 | > 100 | > 100 | > 100 | > 100 | > 100 |
